Measurements published in ChEMBL document CHEMBL3132753, “Synthesis and biological evaluation of 2-acetamidothiophene-3-carboxamide derivatives against Leishmania donovani” (Medchemcomm, 2014).

Tests used:
[1] = Cytotoxicity against human THP1 cells; assay type: cell-based; settings: THP-1 cells
Leishmania donovani [2] = assay: Antileishmanial activity against amastigote stage of Leishmania donovani MHOM/ET/67/HU3 infected in human THP1 cells assessed as parasite clearance after 3 days by Draq5 staining-based confocal microscopic analysis; assay type: functional, organism-based; settings: MHOM/ET/67/HU3, THP-1, 72 h
Leishmania donovani [3] = assay: Antileishmanial activity against promastigote stage of Leishmania donovani MHOM/ET/67/HU3 assessed as parasite viability after 48 hrs by resazurin dye-based assay; assay type: functional, organism-based; settings: MHOM/ET/67/HU3, 48 h
[4] = Selectivity index, ratio of CC50 for human THP1 cells to EC50 for amastigote stage of Leishmania donovani MHOM/ET/67/HU3; assay type: toxicity, cell-based; settings: THP-1 cells, read-out: Ratio CC50/EC50

| EC50 (Leishmania donovani [2]) [µM] | Structure (SMILES) | CC50 [1] [µM] | EC50 (Leishmania donovani [3]) [µM] | selectivity ratio [4] |
| --- | --- | --- | --- | --- |
| > 50 | O=C(Nc1ccc(Cl)cc1)c1c(NC(=O)C(F)(F)F)sc2c1CCCCC2 | > 50 | – | – |
| 0.25 | C[C@@H]1[C@H](O)[C@@H](C)/C=C/C=C/C=C/C=C/C=C/C=C/C=C/[C@H](O[C@@H]2O[C@H](C)[C@@H](O)[C@H](N)[C@@H]2O)C[C@@H]2O[C@](O)(C[C@@H](O)C[C@@H](O)[C@H](O)CC[C@@H](O)C[C@@H](O)CC(=O)O[C@H]1C)C[C@H](O)[C@H]2C(=O)O [AMPHOTERICIN B] | 7.57 | 0.18 | 30.2 |
| > 50 | COc1ccc(NC(=O)c2c(NC(=O)C(F)(F)F)sc3c2CCC3)cc1 | > 50 | – | – |
| > 50 | COC(=O)Nc1sc2c(c1C(=O)Nc1ccc(OC)cc1)CCCCC2 | > 50 | – | – |
| > 50 | COc1ccc(NC(=O)c2ccsc2NC(=O)C(F)(F)F)cc1 | > 50 | > 50 | – |
| 17.6 | O=C(Nc1ccc(C(F)(F)F)cc1)c1c(NC(=O)C(F)(F)F)sc2c1CCCCC2 | 17.2 | > 50 | 0.9 |
| > 50 | COc1ccc(NC(=O)c2c(NC(C)=O)sc3c2CCCCC3)cc1 | > 50 | > 50 | – |
| 7.1 | CCCCCCCCCCCCCCCCOP(=O)([O-])OCC[N+](C)(C)C [MILTEFOSINE] | 22.7 | 7.4 | 3.19 |
| > 50 | COc1ccc(NC(=O)c2c(NC(=O)c3ccccc3)sc3c2CCCCC3)cc1 | > 50 | – | – |
| 14.6 | COc1ccc(NC(=O)c2c(NC(=O)C(F)(F)F)sc3c2CCCC3)cc1 | > 50 | > 50 | > 3.42 |
| > 50 | COc1ccc(CNC(=O)c2c(NC(=O)C(F)(F)F)sc3c2CCCCC3)cc1 | > 50 | > 50 | – |
| > 50 | CC(=O)Nc1sc2c(c1C(=O)OC(C)(C)C)CCCCC2 | > 50 | – | – |
| 10.1 | COc1cccc(NC(=O)c2c(NC(=O)C(F)(F)F)sc3c2CCCCC3)c1 | 37.6 | 21.5 | 3.71 |
| 8.53 | N#Cc1ccc(NC(=O)c2c(NC(=O)C(F)(F)F)sc3c2CCCCC3)cc1 | 9.11 | > 50 | 1.06 |
| > 50 | Cc1ccc(NC(=O)c2c(NC(=O)C(F)(F)F)sc3c2CCCCC3)cc1 | > 50 | – | – |
| > 50 | CC(C)(C)OC(=O)c1c(N)sc2c1CCCCC2 | > 50 | – | – |
| 9.85 | O=C(Nc1ccc(OC(F)(F)F)cc1)c1c(NC(=O)C(F)(F)F)sc2c1CCCCC2 | 11.9 | > 50 | 1.2 |
| 6.41 | COc1ccc(NC(=O)c2c(NC(=O)C(F)(F)F)sc3c2CCCCC3)cc1 | > 50 | > 50 | > 7.8 |
| 10.1 | COc1ccc(NC(=O)c2c(NC(=O)C(F)(F)F)sc(C)c2C)cc1 | > 50 | > 50 | > 4.95 |
| > 50 | COc1ccccc1NC(=O)c1c(NC(=O)C(F)(F)F)sc2c1CCCCC2 | > 50 | 42 | – |
| > 50 | CC(C)(C)NC(=O)c1c(NC(=O)C(F)(F)F)sc2c1CCCCC2 | > 50 | – | – |
